Assay: Inhibition of IL-17 in human PBMC

IC50: 1300 nM
SMILES: COc1cc(OC)c2c(=O)[nH]c(-c3cc(C)c(OCCN4CCCC4)c(C)c3)nc2c1

Reference: BindingDB's records for PubMed 35324195 (Sichuan University, 2022)
